One data set concerns the target T1, PPARγ (Homo sapiens, UniProt P37231).
T1 sequence (P37231 1-505): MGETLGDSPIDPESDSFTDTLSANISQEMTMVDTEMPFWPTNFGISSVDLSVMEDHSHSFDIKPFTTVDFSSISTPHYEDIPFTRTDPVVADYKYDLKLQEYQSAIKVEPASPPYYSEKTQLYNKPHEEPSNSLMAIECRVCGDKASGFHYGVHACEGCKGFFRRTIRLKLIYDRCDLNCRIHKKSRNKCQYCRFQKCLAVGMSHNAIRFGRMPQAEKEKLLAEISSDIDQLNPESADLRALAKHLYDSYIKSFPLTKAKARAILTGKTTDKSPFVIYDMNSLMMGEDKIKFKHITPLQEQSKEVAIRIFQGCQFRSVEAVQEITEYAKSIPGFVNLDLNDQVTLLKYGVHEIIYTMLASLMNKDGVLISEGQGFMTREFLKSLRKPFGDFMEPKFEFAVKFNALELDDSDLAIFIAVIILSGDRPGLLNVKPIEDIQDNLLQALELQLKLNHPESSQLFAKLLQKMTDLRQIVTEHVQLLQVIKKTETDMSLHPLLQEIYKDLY
Description: Relative binding affinity for PPARγ (FIG. 7).

The target of another data set is T2, MPC (Homo sapiens, UniProt O95563+Q9Y5U8).
T2 sequence (Q9Y5U8 1-109): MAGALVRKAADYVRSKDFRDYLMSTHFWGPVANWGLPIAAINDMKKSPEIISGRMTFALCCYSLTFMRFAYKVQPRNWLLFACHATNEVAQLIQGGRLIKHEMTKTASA
T2 sequence (O95563 1-127): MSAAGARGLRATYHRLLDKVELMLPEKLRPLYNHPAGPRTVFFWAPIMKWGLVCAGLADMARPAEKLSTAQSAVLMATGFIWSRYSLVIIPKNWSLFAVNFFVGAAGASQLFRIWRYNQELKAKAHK
Description: Relative binding affinity for the MPC (FIG. 8).

A short description of data set [1]: Exposure of parent and metabolite; bioavailability of potassium salt vs free acid. To be noted: in vivo.
Data set [2] is described as follows: Phase 1 clinical trials in healthy volunteers (PK, safety). The following applies: 126 healthy volunteers. In kind it is in vivo, human.
Data set [3] concerns mouse model of NASH (HTF-C diet). The data set is described as follows: NASH (HTF-C) diet mice: serum small RNA sequencing. The data set is classed as in vivo. The following applies: HTF-C diet containing 331 ppm. On the procedure: To begin evaluating the exosome cargo of MSDC-0602K-treated mice, WT mice were fed with either a low fat (LF) control diet (Research Diets D09100304) or high trans-fat, fructose, cholesterol (HTF-C) diet composed of 40% trans-fat, 20% fructose, 2% cholesterol (Research Diets D09100301).
Total RNA was isolated from 400 μL of serum and small RNA sequencing was performed by adapter ligation, cDNA synthesis and size selection of 145-160 base pairs. Sequencing was then performed on an Illumina HiSeq3000.
Heat map miRNAs (˜230 miRNAs) were selected by filtering data for 2-fold or greater change and FDR<0.1 comparing LF to HTF-C diet (not shown). […] Dysregulation of a number of these miRNAs has been previously identified in liver or other fibrotic diseases.

Data set [4] relates to diet-induced obese (60% HF diet) LS-MPC2−/− and WT (fl/fl) mice. The data set is described as follows: Single gavage dose in diet-induced obese WT and LS-MPC2−/− mice: GTT, plasma insulin, plasma ALT, liver qPCR. The data set is classed as in vivo. The following applies: for glucose tolerance (GTT): 20 h after a single dose of 30 mg/kg. The method, then: 8 week old WT and LS-MPC2−/− mice were fed a diet of 60% fat (Research Diets D12492) for 20 weeks to induce obesity and insulin resistance. Intraperitoneal glucose tolerance tests (GTT) were performed after a 4 h fast by injection of 1 g/kg D-glucose in saline i.p. to assess glucose tolerance. 3 days after the initial GTT, mice were randomized to receive a single gavage of either vehicle (1% CMC, 0.01% Tween-80) or 30 mg/kg MSDC-0602K. Plasma insulin was measured by Singulex assay and plasma ALT levels were measured by commercially-available kits (Teco Diagnostics). qPCR was performed by isolation of total RNA with RNA-Bee and reverse transcription with a high-capacity cDNA synthesis kit (Invitrogen). qPCR was performed on an Applied Biosystems real-time thermocycler.
WT (fl/fl) and LS-MPC2−/− mice were put on 60% HF diet and became equally obese. […] (FIGS. 1A-1C).
(In qPCR the cycle at which signal appears reflects the starting amount.)

The record followed here is patent US20240216344A1, “THIAZOLIDINEDIONE ANALOGS FOR THE TREATMENT OF NAFLD AND METABOLIC DISEASES” (Cirius Therapeutics, Inc., priority 2019, published 2024).

For `COc1cccc(C(O)COc2ccc(CC3SC(=O)NC3=O)cc2)c1` (stereo not drawn) [primary metabolite of MSDC-0602], the “reduction in binding affinity for PPARγ compared to pioglitazone” value on PPARγ is listed as “more than fifty-fold”. Besides, the “binding to the MPC” value at MPC was “maintain, and in some cases improve”. The “share of the combined exposure” value in data set [1] was “more than 90%”.

For `COc1cccc(C(=O)COc2ccc(CC3SC(=O)NC3=O)cc2)c1` (stereo not drawn) [MSDC-0602], the “deaths, serious or severe adverse events, discontinuations due to adverse events” value in data set [2] is on record as “abdominal bloating. No deaths, serious adverse events, severe adverse”. The “serum miRNAs altered in a mouse model of NASH” value in data set [3] is recorded as “largely corrected”. In addition, the “binding to the MPC” value on MPC is “maintain, and in some cases improve”. Besides, in data set [4] (LS-MPC2−/− mice), the “glucose tolerance (GTT)” value was “no improvement in glucose tolerance”. The “beneficial effects on markers of liver injury” value in data set [4] (LS-MPC2−/− mice, acute treatment) was “refractory”. Also, in data set [4] (WT mice), the “glucose tolerance (GTT)” value is on record as “improved glucose tolerance”. Further, in data set [4] (WT mice, single dose), the “gene expression for hepatic stellate cell activation and fibrotic scar formation” value is listed as “decreased gene expression”; the “plasma ALT concentrations” value is given as “decreased plasma ALT concentrations”. In addition, in data set [4] (both WT and LS-MPC2−/− mice, single dose 30 mg/kg), the plasma insulin values result is listed as “decreased”.
